Active and inactive are the calls of the source. No cut-off for these calls is given here.
What was measured:
Format in all cases: nucleic-acid assay
[1] = test system: Nucleic Acid; experiment: Inhibition of Escherichia coli pUC19 DNA photocleavage assessed as conversion of supercoiled DNA to linear form of DNA at 10 uM after 1 hr followed by irradiated for 60 mins by ethidium bromide staining in presence of 100 uM of sodium benzoate
[2] = test system: Nucleic Acid; experiment: Inhibition of Escherichia coli pUC19 DNA photocleavage at 10 uM after 1 hr followed by irradiated for 60 mins by ethidium bromide staining in presence of 100 uM of sodium azide and 1 mol equivalent of copper chloride
[3] = test system: Nucleic Acid; experiment: Inhibition of Escherichia coli pUC19 DNA photocleavage assessed as conversion of supercoiled DNA to nicked form of DNA at 10 uM after 1 hr followed by irradiated for 60 mins by ethidium bromide staining in presence of 100 uM of sodium azide
[4] = test system: Nucleic Acid; experiment: Induction of Escherichia coli pUC19 DNA cleavage assessed as conversion of supercoiled DNA to nicked and linear form of DNA at 2 to 20 uM irradiated for 50 mins measured after 60 mins by ethidium bromide staining in presence of 1 mol equivalent of copper chloride
[5] = test system: Nucleic Acid; experiment: Inhibition of Escherichia coli pUC19 DNA photocleavage assessed as conversion of supercoiled DNA to nicked form of DNA at 10 uM after 1 hr followed by irradiated for 60 mins by ethidium bromide staining in presence of 100 uM of sodium benzoate and 1 mol equivalent of copper chloride
[6] = test system: Nucleic Acid; experiment: Inhibition of Escherichia coli pUC19 DNA photocleavage assessed as conversion of supercoiled DNA to nicked form of DNA at 10 uM after 1 hr followed by irradiated for 60 mins by ethidium bromide staining in presence of 100 uM of sodium benzoate
[7] = test system: Calf thymus DNA; experiment: Binding affinity to calf thymus DNA at 10 uM assessed as change in melting temperature in presence of copper; conditions: Bos taurus
[8] = test system: Nucleic Acid; experiment: Inhibition of Escherichia coli pUC19 DNA photocleavage at 10 uM after 1 hr followed by irradiated for 60 mins by ethidium bromide staining in presence of 100 uM of sodium benzoate
[9] = test system: Nucleic Acid; experiment: Induction of Escherichia coli pUC19 DNA cleavage assessed as conversion of supercoiled DNA to nicked and linear form of DNA at 10 to 30 uM after 1 hr followed by irradiated for 60 mins by ethidium bromide staining in presence of 1 mol equivalent of copper chloride and 150 mM sodium chloride and 240 mM of potassium chloride
[10] = test system: Nucleic Acid; experiment: Inhibition of Escherichia coli pUC19 DNA photocleavage assessed as conversion of supercoiled DNA to linear form of DNA at 10 uM after 1 hr followed by irradiated for 60 mins by ethidium bromide staining in presence of 100 uM of sodium azide
[11] = test system: Nucleic Acid; experiment: Inhibition of Escherichia coli pUC19 DNA photocleavage at 10 uM after 1 hr followed by irradiated for 60 mins by ethidium bromide staining in presence of 100 uM of sodium azide
[12] = test system: Nucleic Acid; experiment: Inhibition of Escherichia coli pUC19 DNA photocleavage at 10 uM after 1 hr followed by irradiated for 60 mins by ethidium bromide staining in presence of 100 uM of sodium benzoate and 1 mol equivalent of copper chloride
[13] = test system: Calf thymus DNA; experiment: Binding affinity to calf thymus DNA at 10 uM by UV-visible spectra analysis in presence of 1 mol equivalent of copper chloride and 260 mM of potassium chloride; conditions: Bos taurus
[14] = test system: Nucleic Acid; experiment: Inhibition of Escherichia coli pUC19 DNA photocleavage assessed as conversion of supercoiled DNA to linear form of DNA at 10 uM after 1 hr followed by irradiated for 60 mins by ethidium bromide staining in presence of 100 uM of sodium azide and 1 mol equivalent of copper chloride
[15] = test system: Nucleic Acid; experiment: Induction of Escherichia coli pUC19 DNA cleavage assessed as conversion of supercoiled DNA to nicked and linear form of DNA at 10 to 30 uM after 1 hr followed by irradiated for 60 mins by ethidium bromide staining in presence of 1 mol equivalent of copper chloride and 240 mM of potassium chloride
[16] = test system: Nucleic Acid; experiment: Inhibition of Escherichia coli pUC19 DNA photocleavage assessed as conversion of supercoiled DNA to nicked form of DNA at 10 uM after 1 hr followed by irradiated for 60 mins by ethidium bromide staining in presence of 100 uM of sodium azide and 1 mol equivalent of copper chloride
[17] = test system: Nucleic Acid; experiment: Induction of Escherichia coli pUC19 DNA cleavage assessed as conversion of supercoiled DNA to nicked and linear form of DNA at 2 to 50 uM after 60 mins by ethidium bromide staining
[18] = test system: Nucleic Acid; experiment: Induction of Escherichia coli pUC19 DNA cleavage assessed as conversion of supercoiled DNA to nicked and linear form of DNA at 10 uM irradiated for 50 mins measured after 60 mins by ethidium bromide staining
[19] = test system: Calf thymus DNA; experiment: Binding affinity to calf thymus DNA at 10 uM assessed as change in melting temperature; conditions: Bos taurus
[20] = test system: Nucleic Acid; experiment: Induction of Escherichia coli pUC19 DNA cleavage assessed as conversion of supercoiled DNA to nicked and linear form of DNA at 10 to 30 uM after 1 hr followed by irradiated for 60 mins by ethidium bromide staining in presence of 1 mol equivalent of copper chloride and 150 mM sodium chloride
[21] = test system: Nucleic Acid; experiment: Inhibition of Escherichia coli pUC19 DNA photocleavage assessed as conversion of supercoiled DNA to linear form of DNA at 10 uM after 1 hr followed by irradiated for 60 mins by ethidium bromide staining in presence of 100 uM of sodium benzoate and 1 mol equivalent of copper chloride

Compound `Nc1ccc2cc3ccc(NCc4cccc(CNc5ccc6cc7ccc(N)cc7nc6c5)n4)cc3nc2c1` has an inhibition [1] of 91%, an inhibition [2] of 5% and an inhibition [3] of 29%. For the same compound, the Activity [4] was “inactive”, the inhibition [5] was -7% and the inhibition [6] was -10%. For the same compound, the Tm [7] was 80 °C, the inhibition [8] was 0% and the Activity [9] was “Active”. The inhibition [10] was 80%, the inhibition [11] was 34% and the inhibition [12] was 0%. For the same compound, the Activity [13] was “Active”, the inhibition [14] was 82% and the Activity [15] was “Active”. The inhibition [16] was -1%, the Activity [17] was “Active” and the Activity [18] was “Active”. For the same compound, the Tm [19] was 79 °C, the Activity [20] was “Active” and the inhibition [21] was 88%.
